Measurements reported in patent US9751858B2, “3-heteroaroylamino-propionic acid derivatives and their use as pharmaceuticals” (SANOFI, priority 2011, dated 2017).

Molecular target: T1, Recombinant human cathepsin A (Homo sapiens, UniProt P10619)
T1 construct: Recombinant human cathepsin A (residues 29-480, with a C-terminal 10-His tag); 10-His (C); purchased R&D Systems 1049-SE
T1 sequence (P10619 29-326 limits assumed): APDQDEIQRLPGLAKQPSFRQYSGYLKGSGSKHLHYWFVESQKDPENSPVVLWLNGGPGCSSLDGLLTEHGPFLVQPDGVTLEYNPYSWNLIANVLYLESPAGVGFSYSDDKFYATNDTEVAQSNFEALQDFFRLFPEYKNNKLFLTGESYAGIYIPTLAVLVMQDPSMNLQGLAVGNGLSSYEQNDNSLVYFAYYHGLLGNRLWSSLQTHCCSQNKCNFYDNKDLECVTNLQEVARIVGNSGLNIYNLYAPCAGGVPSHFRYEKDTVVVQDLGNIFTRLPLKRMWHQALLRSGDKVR
T1 sequence (P10619 327-480 limits assumed): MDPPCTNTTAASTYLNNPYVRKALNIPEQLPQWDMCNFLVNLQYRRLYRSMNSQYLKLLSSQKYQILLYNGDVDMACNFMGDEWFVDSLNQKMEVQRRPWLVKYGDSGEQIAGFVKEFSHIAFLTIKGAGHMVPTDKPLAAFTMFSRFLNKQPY
Assay: Cathepsin A inhibitory activity
Format: biochemical
Details: activated recombinant human cathepsin A 833 ng/ml, Bodipy FL-labeled bradykinin 2 μM, pH 5.5, 15 min room temperature
Outline: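 Cathepsin A activated by cathepsin L (15 min, 37 °C, pH 6.0), then preincubated 15 min at room temperature with compound in 25 mM MES pH 5.5, 5 mM DTT. Bodipy FL-bradykinin cleavage ran 15 min at room temperature; substrate and product separated by microfluidic capillary electrophoresis, turnover from peak areas.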

| SMILES | IC50 [µM] |
| --- | --- |
| Cc1oc(-c2ccccc2F)nc1C(=O)N[C@@H](CC(=O)O)c1ccc(Cl)cc1 [Example 63, (S)-3-(4-Chloro-phenyl)-3-{[2-(2-fluoro-phenyl)-5-methyl-oxazole-4-carbonyl]-amino}-propionic acid] | 3.41 |
| CCCc1nc(C(=O)N[C@@H](CC(=O)O)c2ccccc2C)nn1-c1ccccc1Cl [Example 89, (S)-3-{[1-(2-Chloro-phenyl)-5-propyl-1H-[1,2,4]triazole-3-carbonyl]-amino}-3-o-tolyl-propionic acid] | 0.127 |
| Cc1oc(-c2ccccc2F)nc1C(=O)NC(CC(=O)O)c1ccccc1Cl (stereo not drawn) [Example 62, 3-(2-Chloro-phenyl)-3-{[2-(2-fluoro-phenyl)-5-methyl-oxazole-4-carbonyl]-amino}-propionic acid] | 3.41 |
| Cc1ccc([C@H](CC(=O)O)NC(=O)c2nc(C3CC3)n(-c3ccccc3Cl)n2)cc1 [Example 83, (S)-3-{[1-(2-Chloro-phenyl)-5-cyclopropyl-1H-[1,2,4]triazole-3-carbonyl]-amino}-3-p-tolyl-propionic acid] | > 10 |
| CCCC1CCCCN1C(=O)c1cc(C(=O)N[C@@H](CC(=O)O)c2ccc(C)cc2)nn1CC (stereo partly drawn) [Example 115, (S)-3-{[1-Ethyl-5-(2-propyl-piperidine-1-carbonyl)-1H-pyrazole-3-carbonyl]-amino}-3-p-tolyl-propionic acid] | 2.5 |
| CCc1nc(C(=O)N[C@@H](CC(=O)O)c2ccccc2C)nn1-c1c(Cl)cccc1Cl [Example 108, (S)-3-{[1-(2,6-Dichloro-phenyl)-5-ethyl-1H-[1,2,4]triazole-3-carbonyl]-amino}-3-o-tolyl-propionic acid] | 0.35 |
| Cc1ccccc1[C@H](CC(=O)O)NC(=O)c1nn(C)cc1NS(=O)(=O)CCc1ccccc1 [Example 121, (S)-3-{[1-Methyl-4-(2-phenyl-ethanesulfonylamino)-1H-pyrazole-3-carbonyl]-amino}-3-o-tolyl-propionic acid] | > 10 |
| CC(C)c1oc(-c2ccccc2)nc1C(=O)N[C@@H](CC(=O)O)c1ccc(Cl)cc1Cl [Example 105, (S)-3-(2,4-Dichloro-phenyl)-3-[(5-isopropyl-2-phenyl-oxazole-4-carbonyl)-amino]-propionic acid] | 9.21 |
| O=C(O)C[C@H](NC(=O)c1noc(-c2ccccc2F)n1)c1ccc(F)cc1 [Example 19, (S)-3-(4-Fluoro-phenyl)-3-{[5-(2-fluoro-phenyl)-[1,2,4]oxadiazole-3-carbonyl]-amino}-propionic acid] | 8.58 |
| O=C(O)C[C@@H](Cc1ccccc1)NC(=O)CCc1nc(-c2ccccc2F)no1 [Example 49, (R)-3-{3-[3-(2-Fluoro-phenyl)-[1,2,4]oxadiazol-5-yl]-propionylamino}-4-phenyl-butyric acid] | > 10 |
| O=C(O)C[C@H](NC(=O)c1noc(-c2cccc(F)c2F)n1)c1ccc(F)cc1 [Example 44, (S)-3-{[5-(2,3-Difluoro-phenyl)-[1,2,4]oxadiazole-3-carbonyl]-amino}-3-(4-fluoro-phenyl)-propionic acid] | 5.33 |
| O=C(O)C[C@H](NC(=O)c1noc(-c2ccccc2F)n1)c1ccccc1C(F)(F)F [Example 80, (S)-3-{[5-(2-Fluoro-phenyl)-[1,2,4]oxadiazole-3-carbonyl]-amino}-3-(2-trifluoromethyl-phenyl)-propionic acid] | 11.9 |
| Cc1oc(-c2ccccc2)nc1C(=O)NC(CC(=O)O)C1CCCCC1 (stereo not drawn) [Example 3, 3-Cyclohexyl-3-[(5-methyl-2-phenyl-oxazole-4-carbonyl)-amino]-propionic acid] | 4.97 |
| Cc1ccccc1[C@H](CC(=O)O)NC(=O)c1cc(-c2ccccc2)on1 [Example 2, (S)-3-[(5-Phenyl-isoxazole-3-carbonyl)-amino]-3-o-tolyl-propionic acid] | 6.96 |
| O=C(O)C[C@H](NC(=O)c1nc(-c2ccccc2)oc1C(F)(F)F)c1cccc(F)c1 [Example 79, (S)-3-(3-Fluoro-phenyl)-3-[(2-phenyl-5-trifluoromethyl-oxazole-4-carbonyl)-amino]-propionic acid] | > 10 |
